Assay results reported in patent publication US20260092074A1, “Annelated Pyridines as Steroidogenesis Inhibitors, Preparation Method and Use Thereof” (Guangzhou Vinnocent Pharmaceutical Limited, priority 2022, published 2026).
pIC50: −log10 of the molar value.

Legend:
[1] = target: T1, human CYP11B2 (Homo sapiens, UniProt P19099); experiment: Inhibition of hCYP11B2 in transfected V79 cells; assay type: cell-based; conditions: hamster V79 cells expressing human CYP11B2; substrate 11-deoxycorticosterone 200 nM
T1 construct: expressed in transfected cells
T1 sequence (P19099 25-503): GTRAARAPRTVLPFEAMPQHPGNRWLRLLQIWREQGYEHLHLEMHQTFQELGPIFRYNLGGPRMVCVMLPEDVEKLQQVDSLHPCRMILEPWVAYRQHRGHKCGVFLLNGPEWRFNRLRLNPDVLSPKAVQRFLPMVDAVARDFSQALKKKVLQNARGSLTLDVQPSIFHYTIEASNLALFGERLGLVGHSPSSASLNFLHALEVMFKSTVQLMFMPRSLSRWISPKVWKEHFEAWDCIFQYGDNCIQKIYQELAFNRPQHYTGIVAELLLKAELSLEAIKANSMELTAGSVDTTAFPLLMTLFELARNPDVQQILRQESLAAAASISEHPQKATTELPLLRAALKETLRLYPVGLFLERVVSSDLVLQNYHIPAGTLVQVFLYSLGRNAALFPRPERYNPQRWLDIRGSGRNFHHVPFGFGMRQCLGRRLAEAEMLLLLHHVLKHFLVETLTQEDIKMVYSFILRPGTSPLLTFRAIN
Procedure, shortened: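 The substrate (200 nM, 30 min) was added after a 2 hour compound pre-incubation in lentivirus-transduced V79 cells stably expressing human CYP11B2 plus rat NADPH-P450 reductase.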

[2] = target: T2, human CYP11B1 (Homo sapiens, UniProt P15538); experiment: Inhibition of hCYP11B1 in transfected V79 cells; assay type: cell-based; conditions: hamster V79 cells expressing human CYP11B1; substrate 11-deoxycortisol 200 nM
T2 construct: expressed in transfected cells
T2 sequence (P15538 25-503): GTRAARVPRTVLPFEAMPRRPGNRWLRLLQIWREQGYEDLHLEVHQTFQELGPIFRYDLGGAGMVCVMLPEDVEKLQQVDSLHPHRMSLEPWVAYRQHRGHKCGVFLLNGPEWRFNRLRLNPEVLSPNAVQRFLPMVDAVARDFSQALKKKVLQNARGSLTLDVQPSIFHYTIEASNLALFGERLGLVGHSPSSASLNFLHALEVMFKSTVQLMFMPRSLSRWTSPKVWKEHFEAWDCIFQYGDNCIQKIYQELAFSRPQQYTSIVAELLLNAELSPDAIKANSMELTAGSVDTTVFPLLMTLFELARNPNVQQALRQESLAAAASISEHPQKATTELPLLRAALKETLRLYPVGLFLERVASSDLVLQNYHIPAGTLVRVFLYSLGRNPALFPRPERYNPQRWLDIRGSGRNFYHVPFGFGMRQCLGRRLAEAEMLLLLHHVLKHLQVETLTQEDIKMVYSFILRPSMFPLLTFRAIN
Procedure, shortened: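 Reactions started with 200 nM 11-deoxycortisol, ran for 30 min and were stopped with ethyl acetate, after a 2 h compound preincubation. The host was stably transfected V79 hamster cells carrying human CYP11B1 plus rat P450 reductase. Percent inhibition, from LC-MS/MS or HPLC (260 nm) quantitation of substrate and product, gave the IC50.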

SMILES: O=C(C1CN(Cc2cccc(F)c2)C1)N1CCc2c(-c3cc4cc(Cl)ccc4[nH]3)cncc21 [C80, (4-(5-Chloro-1H-indol-2-yl)-2,3-dihydro-1H-pyrrolo[2,3-c]pyridin-1-yl)(1-(3-fluorobenzyl)azetidin-3-yl)methanone]
- pIC50 [1]: 7.66
- pIC50 [2]: 6.32

SMILES: N#Cc1ccc(-c2cncc3c2OCCN3C(=O)c2ccc(C(F)(F)F)cc2)cc1 [O24, 4-(4-(4-(Trifluoromethyl)benzoyl)-3,4-dihydro-2H-pyrido[4,3-b][1,4]oxazin-8-yl)benzonitrile]
- pIC50 [1]: 7.71
- pIC50 [2]: 7.07

SMILES: N#Cc1ccc(-c2cncc3c2ccn3S(=O)(=O)c2ccc(C(F)(F)F)cc2)cc1 [E7, 4-(1-((4-(Trifluoromethyl)phenyl)sulfonyl)-1H-pyrrolo[2,3-c]pyridin-4-yl)benzonitrile]
- pIC50 [1]: 10.00
- pIC50 [2]: 9.70

SMILES: N#Cc1ccc(-c2cncc3c2ccn3C(=O)c2cccc([N+](=O)[O-])c2)cc1 [E22, 4-(1-(3-Nitrobenzoyl)-1H-pyrrolo[2,3-c]pyridin-4-yl)benzonitrile]
- pIC50 [1]: 9.22
- pIC50 [2]: 7.68

SMILES: N#Cc1ccc(-c2cncc3c2SCCN3C(=O)c2cccc(Cl)c2)cc1 [S93, 4-(4-(3-Chlorobenzoyl)-3,4-dihydro-2H-pyrido[4,3-b][1,4]thiazin-8-yl)benzonitrile]
- pIC50 [1]: 7.62
- pIC50 [2]: 5.88

SMILES: N#Cc1ccc2[nH]c(-c3cncc4c3CCN4C(=O)C3CN(Cc4cccc(F)c4)C3)cc2c1 [C81, 2-(1-(1-(3-Fluorobenzyl)azetidine-3-carbonyl)-2,3-dihydro-1H-pyrrolo[2,3-c]pyridin-4-yl)-1H-indole-5-carbonitrile]
- pIC50 [1]: 7.82
- pIC50 [2]: 6.36

SMILES: COc1ccc(S(=O)(=O)n2ccc3c(-c4ccc(C#N)cc4)cncc32)cc1 [E9, 4-(1-((4-Methoxyphenyl)sulfonyl)-1H-pyrrolo[2,3-c]pyridin-4-yl)benzonitrile]
- pIC50 [1]: 10.00
- pIC50 [2]: 9.52

SMILES: N#Cc1ccc(-c2cncc3c2OCCN3C(=O)C2CN(Cc3ccc(F)cc3)C2)cc1 [O79, 4-(4-(1-(4-Fluorobenzyl)azetidine-3-carbonyl)-3,4-dihydro-2H-pyrido[4,3-b][1,4]oxazin-8-yl)benzonitrile]
- pIC50 [1]: 8.54
- pIC50 [2]: 6.86

SMILES: COc1ccc(S(=O)(=O)N2CCSc3c(-c4cc5cc(Cl)ccc5o4)cncc32)cn1 [S53, 8-(5-Chlorobenzofuran-2-yl)-4-((6-methoxypyridin-3-yl)sulfonyl)-3,4-dihydro-2H-pyrido[4,3-b][1,4]thiazine]
- pIC50 [1]: 9.05
- pIC50 [2]: 7.14

SMILES: Cc1ccc(S(=O)(=O)n2ccc3c(-c4ccc(C#N)cc4)cncc32)cc1 [E2, 4-(1-Tosyl-1H-pyrrolo[2,3-c]pyridin-4-yl)benzonitrile]
- pIC50 [1]: 9.30
- pIC50 [2]: 9.40

SMILES: N#Cc1ccc(-c2cncc3c2CCN3C(=O)c2ccccc2F)cc1 [C31, 4-(1-(2-Fluorobenzoyl)-2,3-dihydro-1H-pyrrolo[2,3-c]pyridin-4-yl)benzonitrile]
- pIC50 [1]: 8.34
- pIC50 [2]: 6.52

SMILES: N#Cc1ccc(C(=O)N2CCc3c(-c4ccc(C#N)cc4)cncc32)cc1 [C48, 4-(1-(4-Cyanobenzoyl)-2,3-dihydro-1H-pyrrolo[2,3-c]pyridin-4-yl)benzonitrile]
- pIC50 [1]: 8.14
- pIC50 [2]: 6.12

SMILES: N#CN1CC(S(=O)(=O)N2CCSc3c(-c4cc5cc(Cl)ccc5o4)cncc32)C1 [S64, 3-((8-(5-Chlorobenzofuran-2-yl)-2,3-dihydro-4H-pyrido[4,3-b][1,4]thiazin-4-yl)sulfonyl) azetidine-1-carbonitrile]
- pIC50 [1]: 8.35
- pIC50 [2]: 6.12

SMILES: N#Cc1ccc(-c2cncc3c2ccn3S(=O)(=O)c2cccc3ccccc23)cc1 [E15, 4-(1-(Naphthalen-1-ylsulfonyl)-1H-pyrrolo[2,3-c]pyridin-4-yl)benzonitrile]
- pIC50 [1]: 9.40
- pIC50 [2]: 9.15

SMILES: N#Cc1ccc(-c2cncc3c2CCN3C(=O)c2cccc(C#N)c2)cc1 [C37, 3-(4-(4-Cyanophenyl)-2,3-dihydro-1H-pyrrolo[2,3-c]pyridine-1-carbonyl)benzonitrile]
- pIC50 [1]: 7.22
- pIC50 [2]: 6.12

SMILES: N#Cc1ccc(-c2cncc3c2OCCN3C(=O)C2CCN(S(=O)(=O)c3cccc(F)c3)CC2)cc1 [O55, 4-(4-(1-((3-Fluorophenyl)sulfonyl)piperidine-4-carbonyl)-3,4-dihydro-2H-pyrido[4,3-b][1, 4]oxazin-8-yl)benzonitrile]
- pIC50 [1]: 8.68
- pIC50 [2]: 6.94

SMILES: CN1C(=O)CCc2cc(-c3cncc4c3SCCN4S(=O)(=O)c3ccc(C#N)cc3)cc(F)c21 [S52, 4-((8-(8-Fluoro-1-methyl-2-oxo-1,2,3,4-tetrahydroquinolin-6-yl)-2,3-dihydro-4H-pyrido[4,3-b][1,4]thiazin-4-yl)sulfonyl)benzonitrile]
- pIC50 [1]: 7.49
- pIC50 [2]: 6.16

SMILES: O=C(c1ccccc1F)N1CCc2c(-c3cc4ccccc4[nH]3)cncc21 [C59, (4-(1H-indol-2-yl)-2,3-dihydro-1H-pyrrolo[2,3-c]pyridin-1-yl)(2-fluorophenyl)methanone]
- pIC50 [1]: 6.88
- pIC50 [2]: 5.56

SMILES: Cc1cccc(CC(=O)N2CCc3c(-c4ccc(C#N)cc4)cncc32)c1 [C66, 4-(1-(2-(m-Tolyl)acetyl)-2,3-dihydro-1H-pyrrolo[2,3-c]pyridin-4-yl)benzonitrile]
- pIC50 [1]: 9.05
- pIC50 [2]: 7.04

SMILES: N#Cc1ccc(-c2cncc3c2OCCN3C(=O)c2ccc(F)cc2)cc1 [O19, 4-(4-(4-Fluorobenzoyl)-3,4-dihydro-2H-pyrido[4,3-b][1,4]oxazin-8-yl)benzonitrile]
- pIC50 [1]: 7.64
- pIC50 [2]: 5.87

SMILES: N#Cc1ccc(-c2cncc3c2OCCN3C(=O)c2ccc(Cl)cc2)cc1 [O28, 4-(4-(4-Chlorobenzoyl)-3,4-dihydro-2H-pyrido[4,3-b][1,4]oxazin-8-yl)benzonitrile]
- pIC50 [1]: 7.68
- pIC50 [2]: 6.56

SMILES: N#Cc1ccc(-c2cncc3c2CCN3C(=O)c2ccc(Cl)cc2)cc1 [C38, 4-(1-(4-Chlorobenzoyl)-2,3-dihydro-1H-pyrrolo[2,3-c]pyridin-4-yl)benzonitrile]
- pIC50 [1]: 7.40
- pIC50 [2]: 6.22

SMILES: N#Cc1ccc(-c2cncc3c2OCCN3C(=O)CCc2cccc(F)c2)cc1 [O48, 4-(4-(3-(3-Fluorophenyl)propanoyl)-3,4-dihydro-2H-pyrido[4,3-b][1,4]oxazin-8-yl)benzonitrile]
- pIC50 [1]: 8.68
- pIC50 [2]: 6.93

SMILES: Cc1ccc(S(=O)(=O)N2CCSc3c(-c4ccc(C#N)cc4)cncc32)cc1 [S12, 4-(4-Tosyl-3,4-dihydro-2H-pyrido[4,3-b][1,4]thiazin-8-yl)benzonitrile]
- pIC50 [1]: 9.74
- pIC50 [2]: 8.55

SMILES: N#Cc1ccc(-c2cncc3c2OCCN3C(=O)C2CNC2)cc1 [O56, 4-(4-(Azetidine-3-carbonyl)-3,4-dihydro-2H-pyrido[4,3-b][1,4]oxazin-8-yl)benzonitrile]
- pIC50 [1]: 8.29
- pIC50 [2]: 6.53

SMILES: N#Cc1ccc(-c2cncc3c2OCCN3C(=O)CCc2cccc(C(F)(F)F)c2)cc1 [O54]
- pIC50 [1]: 8.16
- pIC50 [2]: 6.92

SMILES: COc1ccc(S(=O)(=O)N2CCSc3c(-c4cn[nH]c4)cncc32)cc1 [S39, 4-((4-Methoxyphenyl)sulfonyl)-8-(1H-pyrazol-4-yl)-3,4-dihydro-2H-pyrido[4,3-b][1,4]thia zine]
- pIC50 [1]: 6.58
- pIC50 [2]: 6.86

SMILES: COc1cccc(C(=O)N2CCOc3c(-c4ccc(C#N)cc4)cncc32)c1 [O23, 4-(4-(3-Methoxybenzoyl)-3,4-dihydro-2H-pyrido[4,3-b][1,4]oxazin-8-yl)benzonitrile]
- pIC50 [1]: 7.53
- pIC50 [2]: 6.29

SMILES: N#Cc1ccc(-c2cncc3c2CCN3C(=O)Cc2ccccc2Br)cc1 [C65, 4-(1-(2-(2-Bromophenyl)acetyl)-2,3-dihydro-1H-pyrrolo[2,3-c]pyridin-4-yl)benzonitrile]
- pIC50 [1]: 8.12
- pIC50 [2]: 6.53

SMILES: O=C(c1ccccc1F)N1CCc2c(-c3ccc4occc4c3)cncc21 [C63, (4-(Benzofuran-5-yl)-2,3-dihydro-1H-pyrrolo[2,3-c]pyridin-1-yl)(2-fluorophenyl)methanone]
- pIC50 [1]: 6.95
- pIC50 [2]: 5.74

SMILES: N#Cc1ccc(-c2cncc3c2CCN3C(=O)Cc2ccccc2[N+](=O)[O-])cc1 [C70, 4-(1-(2-(2-Nitrophenyl)acetyl)-2,3-dihydro-1H-pyrrolo[2,3-c]pyridin-4-yl)benzonitrile]
- pIC50 [1]: 7.92
- pIC50 [2]: 6.97
